Source: US9592229B2, “Potent anticancer activity via dual compound activation” (priority 2012, dated 2017)

Key:
[1] = tested on: EL4 (murine lymphoma) cells; assay: EL4 syngeneic murine tumor model; type: in vivo, C57/BL6 mice; settings: PAC-1 125 mg/kg in HPβCD once-a-day for three days; tumors weighed after 8 days
Procedure: EL4 cells (10 million cells per mouse) were injected subcutaneously into mice, the animals were split into four groups and treated with vehicle (2-hydroxypropyl-β-cyclodextrin, HPβCD), 1541B (at 17.5 mg/kg in HPβCD), PAC-1 (125 mg/kg in HPβCD), or 1541B+PAC-1 (17.5 and 125 mg/kg, respectively, in HPβCD). After eight days the mice were sacrificed and the tumors excised and weighed. Error bars equal standard error, and p-values indicated are relative to vehicle control.
To explore the therapeutic utility of this dual procaspase-3 activation strategy, the combination of PAC-1 and 1541B were examined in a murine tumor model.
C57/BL6 mice implanted with EL4 (murine lymphoma) cells were treated with PAC-1 alone (125 mg/kg), 1541B alone (17.5 mg/kg), and PAC-1+1541B (125 mg/kg and 17.5 mg/kg, respectively) once-a-day for three days.

[2] = tested on: procaspase-3 in U-937, A549, BT-549 cell lines; assay: Western blot of procaspase-3 cleavage to caspase-3 in cancer cell lines; type: cell-based, human
Excerpt: FIG. 5. PAC-1/1541B combinations induce rapid and dramatic procaspase-3 maturation and activation. A: The caspase-3/-7-like activity of cancer cell lysates after treatment with the PAC-1/1541B combinations. STS=staurosporine. B: Western blot of various cancer cell lines (using Cell Signaling caspase-3 antibody) after treatment with combinations of PAC-1 and 1541B.
FIG. 6. Data analogous to FIG. 5B with A: HL-60 (human leukemia), B: EL4 (murine lymphoma), C: Hs578T (human breast cancer), and D: Jurkat (human leukemia) cell lines.
FIG. 13. Western blot procaspase3 activation analysis of U-937 cells treated with increasing concentrations of 1541B and either with or without PAC-1.
To determine if the elevation of DEVDase activity was the result of enhanced cleavage of procaspase-3 to caspase-3 facilitated by compound co-treatment, cells treated with PAC-1 and 1541B combinations were assessed by Western blot.
Rather 1541 operates by an allosteric binding and activation mechanism.

MCF-7 cells = assay: Protection by a pan-caspase inhibitor against PAC-1/1541B-mediated cell death; type: cell-based; settings: Q-VD-OPh 25 μM
Excerpt: The proapoptotic effect of the PAC-1/1541B combination was blocked with the pan-caspase inhibitor Q-VD-OPh, consistent with the involvement of caspases in the mode of cell death (FIG. 10).

Compound: C=CCc1cccc(/C=N/NC(=O)CN2CCN(Cc3ccccc3)CC2)c1O [PAC-1, 2-(4-benzylpiperazin-1-yl)-N-[(2-hydroxy-3-prop-2-enyl-phenyl)methylideneamino]acetamide]
- effect on tumor growth [1]: only minimal effect
- activation of procaspase-3 to caspase-3 (Western blot) [2]: low/no procaspase-3 activation

Compound: CC(C)[C@H](NC(=O)c1ccc2ccccc2n1)C(=O)N[C@@H](CC(=O)O)C(=O)COc1c(F)cccc1F [Q-VD-OPh]
- protection against PAC-1/1541B-mediated cell death (MCF-7 cells): protects against PAC-1/1541B-mediated cell death
